Test results taken from patent US8686016B2, “Schweinfurthins and uses thereof” (The United States of America, as represented by the …, priority 2009, dated 2014).

Experiments:
Chemical stability = format: physicochemical; conditions: compared with the free resorcinols
MPNST T265 cells = assay: XTT cell proliferation assay, T265; format: cell-based, human
Procedure: (§1) XTT Cell Proliferation Assay: Cells were seeded into 96-well plates at a density of 2,000 cells/well and allowed to reattach overnight. Cells were treated with SA, synthetic analogs, camptothecin (NCI Chemotherapeutics Repository, Md., USA), or DMSO control at the indicated concentrations continuously for 48 hours followed by assay in the 96-well plate for relative viable cell number using the dye […] (XTT) and a Wallac-Victor 2 plate reader (Perkin-Elmer, Waltham, Mass., USA). Absorbance was determined at 450 nm with 650 nm as a reference reading. Primary astrocytes were additionally assayed at a 96 hour time point.
Cell lines and culture: Human MPNST cell lines (STS26T and T265) were obtained from the Pediatric Oncology Branch, NCI (Bethesda, Md., USA).

MPNST K16561 cells = assay: XTT cell proliferation assay, K16561; format: cell-based, mouse
Procedure: (§2) Establishment of NPcis MPNST cell lines: Mice were euthanized by CO2 asphyxiation and tumors were dissected. The tumor volume was measured. The tumor was then cut in half, and ½ fixed in 4% PFA. The other half was rinsed, then cut into 24 pieces of approximately equal size. Each piece was diced with a razor blade and placed in 1 well of a 24 well plate, along with 625 μL of Triple Express (Gibco, Grand Island, N.Y., USA) and 5 μL of recombinant DNAse (Roche, Indianapolis, Ind., USA). Tumors were triturated, then incubated at 37° C. in a 5% CO2 incubator for 2-5 hours, with an additional trituration halfway through incubation time. At the end of the incubation, tumor pieces were triturated again, and suspended cells were transferred to 1.5 mL eppendorf tubes. […] Both plates were monitored for cell growth, grown up to 10 cm plates, and frozen down in 10% DMSO. […]
as §1, with “Absorbance was determined at 450 nm with 650 nm as a reference reading. Primary astrocytes were additionally assayed at a 96 hour time point.” left out

NCI 60-cell line panel = assay: NCI 60 cell line assay; format: cell-based, human
A549 cells = assay: XTT cell proliferation assay, A549; format: cell-based, human; conditions: 48 hours
Procedure: as §1

[1] = system: KR158 cells stably transfected with GFP-actin; assay: Cell morphology / actin confocal microscopy, KR158 GFP-actin; format: cell-based, mouse; conditions: 16-18 hrs treatment
Procedure: Doxorubicin studies: KR158 stably transfected with GFP-actin were treated with 25 and 50 μM doxorubicin for 18 hrs continuously.
Cell Morphology Assays and Confocal Microscopy: To assay cytoskeleton morphology, KR158 cells, mouse primary astrocytes, KR158 clones expressing the NF1-GRD constructs, K14553 cells, and A549 were seeded to cover slips and allowed to reattach overnight. Cells were treated for 18 hours with either the indicated concentrations of SA, or the vehicle control DMSO. The cover slips were fixed in 3.7% paraformaldehyde, permeablized in 0.1% Triton-X100, and stained with Alexa Fluor 488-phalloidin (Invitrogen, Carlsbad, Calif., USA) to detect actin and cells were mounted in Prolong Antifade containing DAPI (Invitrogen) to stain nuclei. The cells were imaged on a LSM510 confocal microscope (Carl Zeiss Inc., Jena, Germany). […] KR158 GFP-actin transfected cells were seeded to 8-well chamber slides, allowed to reattach, and then treated with indicated concentrations of SA. Actin structures were monitored continuously over a 16 hr period using confocal microscopy equipped with a growth chamber (37° C., humidified atmosphere and 5% CO2). To compare SA to Rho/Rock inhibitors, KR158 GFP-actin cells were treated with SA or with the Rho pathway inhibitors Rock inhibitor Y-27632 (Sigma, St. Louis, Mo., USA), and the Rho inhibitor C3 transferase (Cytoskeleton, Inc., Denver, Colo., USA, cat# CT04) for 16 hrs, and then examined by confocal microscopy.

MPNST K14553 cells = assay: XTT cell proliferation assay, K14553; format: cell-based, mouse
Procedure: as §2
as §1, with “Absorbance was determined at 450 nm with 650 nm as a reference reading. Primary astrocytes were additionally assayed at a 96 hour time point.” left out

COc1cc(/C=C/c2cc(O)c3c(c2)C[C@@H]2C(C)(C)[C@H](O)CC[C@@]2(C)O3)cc(O)c1CC=C(C)C [5′MeSG, 5′-Methylschweinfurthin G]
chemical stability (Chemical stability): more stable chemically than the free resorcinols
inhibition of proliferation (percent viability versus control) (MPNST T265 cells): sensitive
inhibition of proliferation (percent viability versus control) (MPNST K16561 cells): sensitive
GI50 (NCI 60-cell line panel): low nM range

CC[C@@]1(O)C(=O)OCc2c1cc1n(c2=O)Cc2cc3ccccc3nc2-1 [camptothecin, reference compound]
inhibition of proliferation (percent viability versus control) (A549 cells): sensitive

C3 transferase
F-actin staining / stress fibers [1]: dramatic loss of F-actin staining

C[C@@H](N)[C@H]1CC[C@H](C(=O)Nc2ccncc2)CC1 [Y-27632, reference compound]
F-actin staining / stress fibers [1]: dramatic loss of F-actin staining

COc1cccc2c1C(=O)c1c(O)c3c(c(O)c1C2=O)C[C@@](O)(C(=O)CO)C[C@@H]3O[C@H]1C[C@H](N)[C@H](O)[C@H](C)O1 [doxorubicin, reference compound]
F-actin staining / stress fibers [1]: retained stress fibers

COc1cc(/C=C/c2cc(O)c(C/C=C(\C)CCC=C(C)C)c(O)c2)cc2c1O[C@]1(C)C[C@@H](O)[C@@H](O)C(C)(C)[C@H]1C2 [SB, Schweinfurthin B]
inhibition of proliferation (percent viability versus control) (MPNST T265 cells): sensitive
differential cytotoxicity (NCI 60-cell line panel; NCI 60-cell line panel): significant differential cytotoxicity

COc1cc(/C=C/c2cc3c(c(OC)c2)O[C@]2(C)C[C@@H](O)[C@@H](O)C(C)(C)[C@H]2C3)cc(O)c1CC=C(C)C [5′MeSE, 5′-Methylschweinfurthin E]
chemical stability (Chemical stability): more stable chemically than the free resorcinols
inhibition of proliferation (percent viability versus control) (MPNST T265 cells): sensitive
GI50 (NCI 60-cell line panel): low nM range

CC(C)=CCC/C(C)=C/Cc1c(O)cc(/C=C/c2cc(O)c3c(c2)C[C@@H]2C(C)(C)[C@H](O)CC[C@@]2(C)O3)cc1O [3dSB, 3-Deoxyschweinfurthin B]
inhibition of proliferation (percent viability versus control) (MPNST K14553 cells): sensitive
